Laboratory results: patent US7709498B2, “Quinoline derivatives as antibacterial agents” (Janssen Pharmaceutica N.V., priority 2005, dated 2010)
Values after ≈ are worked out from the molar mass of the structure shown.

Legend:
Assay type in all cases: cell-based
[1] = system: Streptococcus pneumoniae (ATCC6305); test: Microtitre plate assay, IC90 determination, SPN 6305; details: 90% inhibitory concentration for bacterial growth, 37° C., resazurin fluorescence; for IC90 (μg/ml) SPN 6305: 24 hours; for IC90: Streptococcus pneumoniae, ATCC6305, 24 h, read-out: IC90 (μg/ml) SPN 6305
Description: (§1) The bacteria used in this study were grown overnight in flasks containing 100 ml Mueller-Hinton Broth (Becton Dickinson—cat. no. 275730) in sterile de-ionized water, with shaking, at 37° C. Stocks (0.5 ml/tube) were stored at −70° C. until use. Bacteria titrations were performed in microtiter plates to detect the TCID50, in which the TCID50 represents the dilution that gives rise to bacterial growth in 50% of inoculated cultures.
(§2) In general, an inoculum level of approximately 100 TCID50 was used for susceptibility testing.
(§3) Flat-bottom, sterile 96-well plastic microtiter plates were filled with 180 μl of sterile deionized water, supplemented with 0.25% BSA. Subsequently, stock solutions (7.8× final test concentration) of compounds were added in 45 μl volumes in column 2. Serial five-fold dilutions (45 μl in 180 μl) were made directly in the microtiter plates from column 2 to reach column 11. Untreated control samples with (column 1) and without (column 12) inoculum were included in each microtiter plate. Depending on the bacteria type, approximately 10 to 60 CFU per well of bacteria inoculum (100 TCID50), in a volume of 100 μl in 2.8× Mueller-Hinton broth medium, was added to the rows A to H, except column 12. The same volume of broth medium without inoculum was added to column 12 in row A to H. The cultures were incubated at 37° C. for 24 hours under a normal atmosphere (incubator with open air valve and continuous ventilation). At the end of incubation, one day after inoculation, the bacterial growth was quantitated fluorometrically. Therefore resazurin (0.6 mg/ml) was added in a volume of 20 μl to all wells 3 hours after inoculation, and the plates were re-incubated overnight. A change in colour from blue to pink indicated the growth of bacteria. The fluorescence was read in a computer-controlled fluorometer (Cytofluor Biosearch) at an excitation wavelength of 530 nm and an emission wavelength of 590 nm. The % growth inhibition achieved by the compounds was calculated according to standard methods. The IC90 (expressed in μg/ml) was defined as the 90% inhibitory concentration for bacterial growth.
(§4) BSU 3639 means Bacillus subtilis (ATCC43639); ECO 25922 means Escherichia coli (ATCC25922); EFA 14506 means Enterococcus faecalis (ATCC14506); EFA 29212 means Enterococcus faecalis (ATCC29212); LMO 49594 means Listeria monocytogenes (ATCC49594); PAE 27853 means Pseudomonas aeruginosa (ATCC27853); SMU 33402 means Streptococcus mutans (ATCC33402); SPN 6305 means Streptococcus pneumoniae (ATCC6305); SPY 8668 means Streptococcus pyogens (ATCC8668); STA 43300 means Staphylococcus aureus (ATCC43300); STA 25923 means Staphylococcus aureus (ATCC25923); STA 29213 means Staphylococcus aureus (ATCC29213); STA RMETH means methicilline resistant Staphylococcus aureus (MRSA) (a clinical isolate from the University of Antwerp). ATCC means American type tissue culture.

[2] = system: Listeria monocytogenes (ATCC49594); test: Microtitre plate assay, IC90 determination, LMO 49594; details: Listeria monocytogenes, ATCC49594, 24 h, 90% inhibitory concentration for bacterial growth, 37° C., resazurin fluorescence, read-out: IC90 (μg/ml) LMO 49594
Description: as §1, §2, §3, §4

[3] = system: Streptococcus mutans (ATCC33402); test: Microtitre plate assay, IC90 determination, SMU 33402; details: 90% inhibitory concentration for bacterial growth, 37° C., resazurin fluorescence; for IC90: Streptococcus mutans, ATCC33402, 24 h, read-out: IC90 (μg/ml) SMU 33402; for IC90 (μg/ml) SMU 33402: 24 hours
Description: as §1, §2, §3, §4

[4] = system: Streptococcus pyogens (ATCC8668); test: Microtitre plate assay, IC90 determination, SPY 8668; details: 90% inhibitory concentration for bacterial growth, 37° C., resazurin fluorescence; for IC90: Streptococcus, ATCC8668, 24 h, read-out: IC90 (μg/ml) SPY 8668; for IC90 (μg/ml) SPY 8668: 24 hours
Description: as §1, §2, §3, §4

Structure (SMILES): COc1nc2ccc(Br)cc2cc1C(c1ccccc1)C(O)(CCN1CCCCC1)c1ccccc1 (stereo not drawn) [Compound 47]
- IC90 (μg/ml) SPN 6305 [1]: 6.9 µg/mL (≈ 12.6 µM)

Structure (SMILES): COc1nc2ccc(-c3ccco3)cc2cc1C(c1ccccc1)C(O)(CCN(C)C)c1cccc(F)c1 (stereo not drawn) [Compound 174]
- IC90 [2]: 10.2 µg/mL (≈ 20 µM)

Structure (SMILES): COc1nc2ccc(Br)cc2cc1C(c1ccc(C)cc1)C(O)(CCN(C)C)c1cccc2ccccc12 (stereo not drawn) [Compound 72]
- IC90 [3]: 9 µg/mL (≈ 15.8 µM)
- IC90 [1]: 14.3 µg/mL (≈ 25.1 µM)
- IC90 [4]: 11.4 µg/mL (≈ 20 µM)

Structure (SMILES): COc1nc2ccc(Br)cc2cc1C(c1ccccc1)C(O)(CCN(C)C)c1ccc(Cl)cc1 (stereo not drawn) [Compound 17]
- IC90 [2]: 10.8 µg/mL (≈ 20 µM)
- IC90 [1]: 0.5 µg/mL (≈ 0.926 µM)

Structure (SMILES): CCN(CCC(O)(c1ccc(F)cc1F)C(c1ccccc1)c1cc2cc(Br)ccc2nc1OC)Cc1ccccc1 (racemic) [Compound C]
- IC90 (μg/ml) SPN 6305 [1]: 15.9 µg/mL (≈ 25.2 µM)

Structure (SMILES): COc1nc2ccc(Br)cc2cc1C(c1ccccc1)C(O)(CCN(C)C)c1cccc(F)c1F (stereo not drawn) [Compound 113]
- IC90 [2]: 10.8 µg/mL (≈ 19.9 µM)
- IC90 [1]: 13.6 µg/mL (≈ 25.1 µM)

Structure (SMILES): COCCOc1nc2ccc(Br)cc2cc1C(c1ccccc1)C(O)(CCN(C)C)c1cccc(F)c1 (racemic) [Compound 165]
- IC90 (μg/ml) SMU 33402 [3]: 14.3 µg/mL (≈ 25.2 µM)
- IC90 (μg/ml) SPN 6305 [1]: 14.3 µg/mL (≈ 25.2 µM)
- IC90 (μg/ml) SPY 8668 [4]: 11.3 µg/mL (≈ 19.9 µM)

Structure (SMILES): COc1nc2ccc(Br)cc2cc1C(c1ccccc1)C(O)(CCN(C)C)c1ccsc1 (stereo not drawn) [Compound 24]
- IC90 [1]: 10.2 µg/mL (≈ 19.9 µM)

Structure (SMILES): COc1nc2ccc(Br)cc2cc1C(c1ccccc1)C(O)(CCN(C)C)c1cc(F)cc(F)c1 (stereo not drawn) [Compound 116]
- IC90 [2]: 10.8 µg/mL (≈ 19.9 µM)

Structure (SMILES): COc1nc2ccc(Br)cc2cc1C(c1ccccc1)C(O)(CCN1CCSCC1)c1ccccc1 (racemic) [Compound 55]
- IC90 (μg/ml) SPN 6305 [1]: 0.6 µg/mL (≈ 1.06 µM)

Structure (SMILES): COc1nc2ccc(Br)cc2cc1C(c1ccccc1)C(O)(CCN1CCOCC1)c1ccc2ccccc2c1 (racemic) [Compound 140]
- IC90 (μg/ml) SMU 33402 [3]: 9.5 µg/mL (≈ 15.9 µM)

Structure (SMILES): COc1nc2ccc(Br)cc2cc1C(c1ccc(F)cc1)C(O)(CCN(C)C)c1cccc2ccccc12 (stereo not drawn) [Compound 206]
- IC90 [1]: 12.8 µg/mL (≈ 22.3 µM)

Structure (SMILES): COc1nc2ccccc2cc1C(c1ccccc1)C(O)(CCN(C)C)c1ccccc1 (stereo not drawn) [Compound 41]
- IC90 [2]: 17 µg/mL (≈ 39.9 µM)

Structure (SMILES): COc1nc2ccc(Br)cc2cc1C(c1ccccc1)C(O)(CCN(C)C)c1cc(F)ccc1F (stereo not drawn) [Compound 67]
- IC90 [2]: 10.8 µg/mL (≈ 19.9 µM)
- IC90 [1]: 13.6 µg/mL (≈ 25.1 µM)

Structure (SMILES): COc1nc2ccc(Br)cc2cc1C(c1ccccc1)C(O)(CCN1CCCCC1)c1ccc2ccccc2c1 (stereo not drawn) [Compound 128]
- IC90 [2]: 9.4 µg/mL (≈ 15.8 µM)

Structure (SMILES): CCOc1nc2ccc(Br)cc2cc1C(c1ccccc1)C(O)(CCN(C)C)c1ccccc1 (stereo not drawn) [Compound 5]
- IC90 (μg/ml) SMU 33402 [3]: 10.4 µg/mL (≈ 20 µM)

Structure (SMILES): COc1nc2ccc(Br)cc2cc1C(c1ccccc1)C(O)(CCN1CCCC1)c1ccc2ccccc2c1 (racemic) [Compound 171]
- IC90 (μg/ml) SPY 8668 [4]: 11.6 µg/mL (≈ 19.9 µM)

Structure (SMILES): COc1nc2ccc(Br)cc2cc1C(c1ccccc1)C(O)(CCN(C)C)c1ccc2c(c1)OCCO2 (stereo not drawn) [Compound 78]
- IC90 [3]: 11.2 µg/mL (≈ 19.9 µM)
- IC90 (μg/ml) SPN 6305 [1]: 11.2 µg/mL (≈ 19.9 µM)
- IC90 [4]: 11.2 µg/mL (≈ 19.9 µM)

Structure (SMILES): COc1nc2ccc(Br)cc2cc1C(c1ccccc1)C(O)(CCN(C)C)c1ccccc1 (single isomer, unassigned) [F]
- IC90 (μg/ml) SMU 33402 [3]: 22.6 µg/mL (≈ 44.7 µM)
- IC90 (μg/ml) SPN 6305 [1]: 25.3 µg/mL (≈ 50.1 µM)
- IC90 (μg/ml) SPY 8668 [4]: 22.6 µg/mL (≈ 44.7 µM)

Structure (SMILES): COc1nc2ccc(Br)cc2cc1C(c1ccccc1)C(O)(CCN1CCCCC1)c1ccc2ccccc2c1 (stereo not drawn) [Compound 129]
- IC90 [3]: 11.9 µg/mL (≈ 20 µM)
- IC90 [1]: 15 µg/mL (≈ 25.2 µM)
- IC90 [4]: 11.9 µg/mL (≈ 20 µM)

Structure (SMILES): COc1nc2ccc(Br)cc2cc1C(c1ccccc1)C(O)(CCN1CCCC1)c1ccc2ccccc2c1 (stereo not drawn) [Compound 170]
- IC90 [1]: 26 µg/mL (≈ 44.7 µM)

Structure (SMILES): CNCCC(O)(c1ccccc1)C(c1ccccc1)c1cc2cc(Br)ccc2nc1OC (stereo not drawn) [Compound D]
- IC90 [1]: 4.9 µg/mL (≈ 9.97 µM)

Structure (SMILES): COc1nc2ccc(Br)cc2cc1C(c1ccccc1)C(O)(CCN(C)C)c1ccccc1 (stereo not drawn) [Compound 4]
- IC90 [1]: 12.7 µg/mL (≈ 25.1 µM)
